Experimental data published in patent publication US6962945B2, “N-aryloxypropanolyl-N′-phenethyl-urea” (Council of Scientific and Industrial Research, priority 2004, dated 2005).
Entries after “also recorded” stand apart in the source; their conditions may differ.

Tested on: adult male Sprague Dawley rats
Test: appetite suppressant activity on scheduled fed rat model of appetite
Format: in vivo
Settings: 20 μmol/kg, by oral route; for decrease in food intake as compared to food intake in the control group: fat rich diet 3 h daily, 30 min prior to food; for change in gross behaviour: observed during the period of feeding
Experimental: The pharmacological evaluation of the test compounds of general formula 3 was carried out by the following protocol.
The appetite suppressant activity of test compounds was tested on scheduled fed rat model of appetite. The study was conducted in adult male Sprague Dawley rats, weighing 175-200 g on arrival). The animals were housed in transparent cages of Bayer Makrolon type 3118 measuring 425×266×180 with floor area 800 cm^2. In each cage one rat was kept. A special fat rich diet (Diet #12451, Research Diets, NJ, USA) was provided only for 3 h (11 am-2 pm) daily [no diet in rest of the period]. Water was provided for 24 h. Diet was weighed prior to and after observation period by an electronic [Digital display] balance. Food intake was recorded by calculating the difference between prior and after weight of diet. Rats were weighed weekly after feeding. Rats were provided 16 g of diet daily and within 12-14 days animals achieved base line food intake (12-14 g) with gain in body weight (230-250 g) indicating adaptation to scheduled feeding. Only those rats that adapted to schedule feeding were used in the study. Rat showing significant less food intake and weight gain as compared to others was excluded from the study.
Thereafter, tests compounds dissolved in 10% DMSO aqueous solution and given in dose of 20 μmol/kg, by oral route. The test compounds were administered 30 min prior to food. Each test compounds were given in 5 rats. Diet and water was weighed at hourly interval in control and compound treated rats. During the period of feeding the gross behavior of rat was also observed.
The significance of difference between the food intake of treated and control groups was determined by unpaired Student's test [Two tailed p value].

CC(C)CC(N(C)C)C1(c2ccc(Cl)cc2)CCC1 (centres unmarked) [Sibutramine, reference compound]
decrease in food intake as compared to food intake in the control group: 38.57%

O=C(NCCc1ccccc1)NCC(O)COc1ccc(C(F)(F)F)cc1 (centres unmarked) [compound 3a, N-[2-hydroxy-3-(4-trifluoromethylphenoxy)propyl]-N′-2-phenethyl-urea]
activity compared with Sibutramine: comparable; also recorded: same activity as Sibutramine | change in water intake: did not cause any significant change | change in gross behaviour: did not cause any significant change | decrease in food intake as compared to food intake in the control group: 41.42%

COc1ccc(OCC(O)CNC(=O)NCCc2ccccc2)cc1 (centres unmarked) [compound 3j, N-[2-hydroxy-3-(4-methoxyphenoxy)propyl]-N′-2-phenethyl-urea]
change in water intake: did not cause any significant change | change in gross behaviour: did not cause any significant change | decrease in food intake as compared to food intake in the control group: 31.82%

OC(CNC(=S)NCCc1ccccc1)COc1ccc(C(F)(F)F)cc1 (centres unmarked) [compound 3n, N-[2-hydroxy-3-(4-trifluoromethylphenoxy)propyl]-N′-2-phenethyl-thiourea]
change in water intake: did not cause any significant change | change in gross behaviour: did not cause any significant change | decrease in food intake as compared to food intake in the control group: 28.4%
